Experimental data taken from article PMC9297976 (Journal of Applied Toxicology, 2021).

Key:
medaka Esr1 (mEsr1) [1] = biological target: T1, medaka Esr1 (mEsr1) (Oryzias latipes, UniProt P50241); assay: Medaka Esr1 reporter gene assay, antagonist assay; type: cell-based, Japanese medaka (Oryzias latipes); conditions: E2 spiked at 1.0 nM (B); MAC = 1.0 × 10^−5 M
T1 sequence (P50241 1-620): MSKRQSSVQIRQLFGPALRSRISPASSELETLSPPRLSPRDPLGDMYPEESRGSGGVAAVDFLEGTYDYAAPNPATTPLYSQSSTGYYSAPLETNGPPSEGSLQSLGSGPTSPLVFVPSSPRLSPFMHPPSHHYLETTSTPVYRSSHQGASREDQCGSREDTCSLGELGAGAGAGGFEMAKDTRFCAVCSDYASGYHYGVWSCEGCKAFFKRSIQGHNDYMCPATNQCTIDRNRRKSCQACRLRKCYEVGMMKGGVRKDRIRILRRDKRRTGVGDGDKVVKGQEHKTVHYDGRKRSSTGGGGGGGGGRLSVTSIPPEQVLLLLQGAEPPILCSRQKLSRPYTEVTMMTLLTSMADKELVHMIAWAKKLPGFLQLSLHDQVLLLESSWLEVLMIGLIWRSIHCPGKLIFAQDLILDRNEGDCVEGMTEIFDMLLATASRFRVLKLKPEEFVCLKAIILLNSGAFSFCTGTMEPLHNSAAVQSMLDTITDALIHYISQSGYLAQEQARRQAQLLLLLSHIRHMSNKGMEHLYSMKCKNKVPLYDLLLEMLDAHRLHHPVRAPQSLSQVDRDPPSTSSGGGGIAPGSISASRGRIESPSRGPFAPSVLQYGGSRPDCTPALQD

medaka ARβ (mArβ) [2] = biological target: T2, medaka ARβ (mArβ) (Oryzias latipes, UniProt D1MV73); assay: Medaka ARβ reporter gene assay, agonist assay; type: cell-based, Japanese medaka (Oryzias latipes); conditions: MAC = 1.0 × 10^−5 M
T2 sequence (D1MV73 1-744): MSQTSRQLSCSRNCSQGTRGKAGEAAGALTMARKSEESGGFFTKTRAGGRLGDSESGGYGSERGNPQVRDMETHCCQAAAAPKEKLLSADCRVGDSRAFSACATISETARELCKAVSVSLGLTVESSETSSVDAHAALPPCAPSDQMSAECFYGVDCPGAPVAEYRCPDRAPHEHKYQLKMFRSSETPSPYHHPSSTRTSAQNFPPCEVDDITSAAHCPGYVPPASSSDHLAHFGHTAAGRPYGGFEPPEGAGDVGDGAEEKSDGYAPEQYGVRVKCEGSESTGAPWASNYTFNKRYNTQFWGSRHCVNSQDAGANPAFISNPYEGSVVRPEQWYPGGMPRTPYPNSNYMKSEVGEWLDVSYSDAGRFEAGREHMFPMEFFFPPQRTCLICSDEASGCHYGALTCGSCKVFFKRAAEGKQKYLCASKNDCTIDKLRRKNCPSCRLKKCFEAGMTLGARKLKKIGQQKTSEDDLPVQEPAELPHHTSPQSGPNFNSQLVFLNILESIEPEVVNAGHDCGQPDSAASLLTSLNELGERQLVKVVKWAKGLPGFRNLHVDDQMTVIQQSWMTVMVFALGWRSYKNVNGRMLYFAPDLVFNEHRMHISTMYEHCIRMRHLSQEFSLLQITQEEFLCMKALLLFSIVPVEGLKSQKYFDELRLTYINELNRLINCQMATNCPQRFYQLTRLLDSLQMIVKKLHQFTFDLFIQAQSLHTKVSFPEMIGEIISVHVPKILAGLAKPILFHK

medaka ARβ (mArβ) [3] = biological target: T2, medaka ARβ (mArβ); assay: Medaka ARβ reporter gene assay, antagonist assay; type: cell-based, Japanese medaka (Oryzias latipes); conditions: 11‐KT spiked at 50 nM (D); MAC = 1.0 × 10^−5 M
[4] = test system: Japanese medaka (Oryzias latipes); assay: Fish Short‐Term Reproduction Assay; type: in vivo; conditions: for GSI Female / GSI Male / HSI Female / HSI Male / Length Female / Length Male / Weight Female / Weight Male: completion of exposure
medaka Esr1 (mEsr1) [5] = biological target: T1, medaka Esr1 (mEsr1); assay: cell-based; set-up: species or system Japanese medaka (Oryzias latipes)
[6] = 177 μg/L measured, 21 d, sig. ↑ vs control
[7] = 353 μg/L measured, 21 d, sig. ↑ vs control
[8] = 353 μg/L measured, 21 d, sig. ↓ vs control
[9] = measured concentration 54.4 μg/L
[10] = measured concentration 104 μg/L
[11] = measured concentration 177 μg/L
[12] = measured concentration 353 μg/L

## Oc1cc(Cl)ccc1Oc1ccc(Cl)cc1Cl [TCS, Triclosan]
Medaka Esr1 (mEsr1) [1]
  Antagonistic activity: NE (MAC = 1.0 × 10^−5 M)^(B)
Medaka ARβ (mArβ) [2]
  Agonistic activity: NE (MAC = 1.0 × 10^−5 M)
Medaka ARβ (mArβ) [3]
  Antagonistic activity: NE (MAC = 1.0 × 10^−5 M)^(D)
[4]; 54.4 μg/L measured, 21 d
  Fertility rate: 96 ± 3.3%
  Hepatic VTG, female: 616 ± 220 ng/mg‐liver
  Hepatic VTG, male: 3.3 ± 4.7 ng/mg‐liver
  Mortality: 4.2%
  Mortality, number of dead fish: 1
  Number of fertilized eggs (per female per day): 25 ± 4.0
  Number of total eggs (per female per day): 26 ± 3.8
  SSC female (joint plates with papillary processes): 0 ± 0
[4]; 104 μg/L measured, 21 d
  Fertility rate: 98 ± 1.4%
  Hepatic VTG, female: 698 ± 32 ng/mg‐liver
  Hepatic VTG, male: 4.5 ± 2.7 ng/mg‐liver
  Mortality: 13%
  Mortality, number of dead fish: 3
  Number of fertilized eggs (per female per day): 24 ± 1.0
  Number of total eggs (per female per day): 24 ± 1.1
  SSC female (joint plates with papillary processes): 0 ± 0
[4]; 177 μg/L measured, 21 d
  Fertility rate: 97 ± 1.5%
  Number of fertilized eggs (per female per day): 18 ± 7.0
  Number of total eggs (per female per day): 19 ± 7.2
  SSC female (joint plates with papillary processes): 0 ± 0
[4]; [6]
  Hepatic VTG, female: 955 ± 73 ng/mg‐liver
  Mortality: 29%
  Mortality, number of dead fish: 7
[4]; 177 μg/L measured, 21 d, sig. ↓ vs control
  Hepatic VTG, male: 0.9 ± 0.1 ng/mg‐liver
[4]; 353 μg/L measured, 21 d
  Fertility rate: 98 ± 0.8%
  SSC female (joint plates with papillary processes): 0 ± 0
[4]; [7]
  Hepatic VTG, female: 1,111 ± 265 ng/mg‐liver
  Mortality: 50%
  Mortality, number of dead fish: 12
[4]; [8]
  Hepatic VTG, male: 1.0 ± 0.3 ng/mg‐liver
  Number of fertilized eggs (per female per day): 10 ± 1.9
  Number of total eggs (per female per day): 10 ± 2.0
[4]; 21 d
  Change of hepatic VTG levels in females (in words): significant increase
  Fecundity, number of total eggs (in words): statistically significant decrease
[4]; Oryzias latipes, 504 h, read-out: LOECmVTG
  minimal effective concentration: > 0.353 µg/mL
[4]; chemicals with significant decrease of number of total eggs
  Fertility rate (in words): no significant effect
[4]; lowest observed effect concentration on mortality
  LOECTOX: 177 µg/L
[4]; [9]
  GSI Female: 7.3 ± 0.4%
  GSI Male: 1.00 ± 0.13%
  HSI Female: 3.8 ± 0.40%
  HSI Male: 1.6 ± 0.23%
  Length Female: 33.5 ± 0.7 mm
  Length Male: 33.6 ± 0.7 mm
  Weight Female: 449 ± 11 mg
  Weight Male: 379 ± 28 mg
[4]; [10]
  GSI Female: 7.5 ± 0.6%
  GSI Male: 1.00 ± 0.23%
  HSI Female: 3.7 ± 0.79%
  HSI Male: 1.5 ± 0.09%
  Length Female: 32.8 ± 1.1 mm
  Length Male: 34.8 ± 0.7 mm
  Weight Female: 409 ± 20 mg
  Weight Male: 417 ± 13 mg
[4]; [11]
  GSI Female: 7.9 ± 1.4%
  GSI Male: 0.90 ± 0.17%
  HSI Female: 3.8 ± 0.30%
  HSI Male: 1.4 ± 0.41%
  Length Female: 32.4 ± 1.3 mm
  Length Male: 33.3 ± 0.9 mm
  Weight Female: 425 ± 45 mg
  Weight Male: 380 ± 66 mg
[4]; [12]
  GSI Female: 8.7 ± 1.1%
  GSI Male: 1.20 ± 0.73%
  HSI Female: 4.5 ± 0.23%
  HSI Male: 2.4 ± 1.08%
  Length Female: 33.2 ± 0.9 mm
  Length Male: 33.3 ± 1.5 mm
  Weight Female: 437 ± 30 mg
  Weight Male: 361 ± 57 mg
Medaka Esr1 (mEsr1) [5]
  Agonistic activity PC10: PC10 = 2.0 × 10^−6 M
Medaka Esr1 (mEsr1) [5]; mode of action in which EC50 or PC10 was obtained in RGA
  In vitro positive: Esr: Esr
